Experimental data published in patent publication US8754115B2, “Fungicidal pyrazoles” (E I du Pont de Nemours and Company, priority 2010, dated 2014).
Marks after values point to notes of the source that are not given here.

Key:
Assay type in all cases: in vivo
[1] = test system: Puccinia recondite f. sp. tritici; assay: Test E2: preventive spray on wheat seedlings, visual disease rating (wheat leaf rust)
Text: (§1) General protocol for preparing test suspensions for Tests A-F: the test compounds were first dissolved in acetone in an amount equal to 3% of the final volume and then suspended at the desired concentration (in ppm) in acetone and purified water (50/50 mix by volume) containing 250 ppm of the surfactant Trem® 014 (polyhydric alcohol esters). The resulting test suspensions were then used in Tests A-F. Spraying a 200 ppm test suspension to the point of run-off on the test plants was the equivalent of a rate of 800 g/ha. Unless otherwise indicated, the rating values indicate a 200 ppm test suspension was used. (An asterisk “*” next to the rating value indicates a 40 ppm test suspension was used.)
The test suspension was sprayed to the point of run-off on wheat seedlings. The following day the seedlings were inoculated with a spore suspension of Puccinia recondite f. sp. tritici (the causal agent of wheat leaf rust) and incubated in a saturated atmosphere at 20° C. for 24 h, and then moved to a growth chamber at 20° C. for 7 days, after which time visual disease ratings were made.
(§2) Results for Tests A-F are given in Table A. In the Table, a rating of 100 indicates 100% disease control and a rating of 0 indicates no disease control (relative to the controls). A dash (-) indicates no test results. An asterisk “*” next to the rating value indicates a 40 ppm test suspension was used.

[2] = test system: Botrytis cinerea; assay: Test A: preventive spray on tomato seedlings, visual disease rating (tomato Botrytis)
Text: as §1
(§3) The test suspension was sprayed to the point of run-off on tomato seedlings. The following day the seedlings were inoculated with a spore suspension of Botrytis cinerea (the causal agent of tomato Botrytis) and incubated in saturated atmosphere at 20° C. for 48 h, and then moved to a growth chamber at 24° C. for 3 days, after which time visual disease ratings were made.
as §2

[3] = test system: Septoria tritici; assay: Test D: preventive spray on wheat seedlings, visual disease rating (wheat leaf blotch)
Text: as §1
as §3, with “wheat” for “tomato”, “Septoria tritici” for “Botrytis cinerea”, “wheat leaf blotch)” for “tomato Botrytis)”, “24°” for “20°”, “20°” for “24°”, “19” for “3”
as §2

[4] = test system: Blumeria graminis f. sp. tritici; assay: Test F: preventive spray on wheat seedlings, visual disease rating (wheat powdery mildew)
Text: as §1
The test suspension was sprayed to the point of run-off on wheat seedlings. The following day the seedlings were inoculated with a spore dust of Blumeria graminis f. sp. tritici, (also known as Erysiphe graminis f. sp. tritici, the causal agent of wheat powdery mildew) and incubated in a growth chamber at 20° C. for 8 days, after which time visual disease ratings were made.
as §2

[5] = asterisk: 40 ppm test suspension
[6] = no asterisk: standard test suspension, not 40 ppm
[7] = no asterisk: standard test suspension, not 40 ppm, 100 = 100% disease control, 0 = none

Row | Compound | Test E2 rating (% disease control) [1, 5] | Test A rating (% disease control) [2, 5] | Test D rating (% disease control) [3, 5] | Test F rating (% disease control) [4, 5] | Test E2 rating (% disease control) [1, 6] [%] | Test A rating (% disease control) [2, 7] [%] | Test D rating (% disease control) [3, 6] [%] | Test F rating (% disease control) [4, 6] [%]
1 | Cc1nn(C)c(-c2c(F)cccc2F)c1C(SC#N)c1ccc(F)cc1F (centres unmarked) [Compound 115] | 94* % | 88* % | 100* % | 99* % | – | – | – | –
2 | Cc1nn(C)c(-c2ccc(F)cc2)c1C(O)c1ccc(F)cc1Cl (centres unmarked) [compound 105] | 98* % | 0* % | 100* % | 81* % | – | – | – | –
3 | COc1cc(F)c(-c2c(C(O)c3ccc(F)cc3F)c(C)nn2C)c(F)c1 (centres unmarked) [compound 172] | 100* % | 99* % | 100* % | 100* % | – | – | – | –
4 | CC(=O)OC(c1ccc(F)cc1Cl)c1c(C)nn(C)c1-c1c(F)cccc1F (centres unmarked) [Compound 108] | 100* % | 99* % | 100* % | 100* % | – | – | – | –
5 | COc1nn(C)c(-c2c(F)cc(F)cc2F)c1C(O)c1ccc(F)cc1F (centres unmarked) [compound 153] | 100* % | 100* % | 100* % | 100* % | – | – | – | –
6 | Cn1nc(Br)c(C(O)c2ccc(F)cc2Br)c1-c1ccc(F)cc1Cl (centres unmarked) [compound 164] | – | – | – | – | 100 | 100 | 100 | 0
7 | Cc1nn(C)c(-c2c(F)cc(Br)cc2F)c1C(O)c1ccc(F)cc1F (centres unmarked) [compound 106] | – | – | – | – | 97 | 98 | 100 | 0
8 | Cc1nn(C)c(-c2c(F)cccc2F)c1C(OCC#N)c1ccc(F)cc1Cl (centres unmarked) [Compound 107] | 99* % | 9* % | 99* % | 99* % | – | – | – | –
9 | COc1ccc(C(O)c2c(C)nn(C)c2-c2ccc(F)cc2Cl)c(Cl)c1 (centres unmarked) [compound 169] | 88* % | 0* % | 68* % | 0* % | – | – | – | –
10 | Cc1nn(C)c(-c2c(Cl)cncc2Cl)c1C(O)c1ccc(F)cc1F (centres unmarked) [compound 167] | 0* % | 0* % | 58* % | 0* % | – | – | – | –
11 | Cc1nn(C)c(-c2c(F)cccc2Cl)c1C(SC#N)c1ccc(F)cc1F (centres unmarked) [Compound 122] | 100* % | 98* % | 100* % | 99* % | – | – | – | –
12 | COc1nn(C)c(-c2ccc(F)cc2Cl)c1C(O)c1ccc(F)cc1Cl (centres unmarked) [compound 118] | – | – | – | – | 99 | 100 | 100 | 100
13 | COc1nn(C)c(-c2c(F)cccc2Cl)c1C(O)c1ccc(F)cc1Cl (centres unmarked) [compound 120] | – | – | – | – | 100 | 100 | 100 | 100
14 | COc1ccc(C(O)c2c(C)nn(C)c2-c2c(F)cccc2Cl)c(Cl)c1 (centres unmarked) [compound 170] | 100* % | 100* % | 100* % | 98* % | – | – | – | –
15 | Cn1ncc(C(O)c2ccc(F)cc2Cl)c1-c1c(F)cccc1F (centres unmarked) [compound 130] | – | – | – | – | 100 | 100 | 100 | 100
16 | COc1nn(C)c(-c2c(F)cc(Cl)cc2F)c1C(O)c1ccc(F)cc1Cl (centres unmarked) [compound 162] | 86* % | 99* % | 100* % | 64* % | – | – | – | –
17 | Cc1nn(C)c(-c2ccc(F)cc2Br)c1C(O)c1ccc(F)cc1Cl (centres unmarked) [compound 95] | 98* % | 94* % | 99* % | 95* % | – | – | – | –
